# Results taken from patent publication US9481654B2, “Compositions and methods for inhibition of the JAK pathway” (Rigel Pharmaceuticals, Inc., priority 2006, dated 2016).
# Key:
# [1] = tested on: IL-4 stimulated CD23 upregulation in human Ramos B cells (JAK-1/JAK-3, Stat-6); assay: Assay for Ramos B-Cell Line Stimulated with IL-4 (CD23 upregulation, FACS); type: cell-based; conditions: Table III Example 3
# Summary of the method: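 Flow cytometry of CD23 staining after 20-24 h IL-4 stimulation (50 units/mL final) of human Ramos B cells in RPMI with 5% serum. Cells, 5×10^4 per point, received compound or DMSO vehicle for 1 h at 37° C prior to stimulation.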
# [2] = tested on: IFNγ induced ICAM-1 (CD54) up-regulation in A549 lung epithelial cells (JAK/Stat pathway); assay: A549 Epithelial Line Stimulated with IFNγ (ICAM-1 surface expression, flow cytometry); type: cell-based, human; conditions: Table III Example 5
# Summary of the method: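 A549 cells (20,000/well, adhered overnight) pre-treated with compound 1 h, then IFNγ 75 ng/mL for 24 h; compound 30 μM–14 nM in 5% FBS, 0.3% DMSO. Surface ICAM-1 stained with APC anti-CD54, geometric mean by flow cytometry; dose-response gives EC50.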
smiles,measurement,setting,value
"CNS(=O)(=O)c1ccc(Nc2ncc(C)c(Nc3cccc(CNS(=O)(=O)C4CC4)c3)n2)cc1 [Compound I-207, N4-(3-cyclopropylsulfonylaminomethyl)phenyl-5-methyl-N2-(4-methylaminosulfonyl)phenyl-2,4-pyrimidinediamine]",IC50,[1],0.0865 µM
same,IC50,[2],6.11 µM
